According to US10526323B2, “Indazole and azaindazole substituted compounds as mGluR4 allosteric potentiators, compositions, and methods of treating neurological dysfunction” (Vanderbilt University, priority 2015, dated 2020):

Molecular target: mGluR4 (UniProt Q14833)
Test: mGluR4 potentiation assay: increase in response to an EC20 concentration of agonist (species not given)
Type: cell-based
Conditions: EC50 for potentiation of mGluR4; table does not state human or rat
How it was run: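 Human mGluR4 was expressed in CHO cells read with a Ca2+-sensitive dye; rat mGluR4 was co-expressed with GIRK in […] read by thallium flux. Potentiation is the rise over agonist-alone response, with EC50 and maximal potentiation from non-linear fits.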

Compound | EC50
Cc1nn(CCCCN2CCCCC2)c2ccc(Nc3n[nH]c4cccnc34)cc12 [Example 283, N-(3-methyl-1-(4-(piperidin-1-yl)butyl)-1H-indazol-5-yl)-1H-pyrazolo[4,3-b]pyridin-3-amine] | 3510 nM
Clc1nn(CC2CCC2)c2ccc(Nc3n[nH]c4cccnc34)cc12 [Example 285, N-(3-chloro-1-(cyclobutylmethyl)-1H-indazol-5-yl)-1H-pyrazolo[4,3-b]pyridin-3-amine] | 1980 nM
FC1(F)CC(Cn2nc(Cl)c3cc(Nc4n[nH]c5cccnc45)ccc32)C1 [Example 287, N-(3-chloro-1-((3,3-difluorocyclobutyl)methyl)-1H-indazol-5-yl)-1H-pyrazolo[4,3-b]pyridin-3-amine] | 2990 nM
Cc1nn(CC2CC(F)(F)C2)c2ccc(Nc3n[nH]c4cccnc34)cc12 [Example 288, N-(1-((3,3-difluorocyclobutyl)methyl)-3-methyl-1H-indazol-5-yl)-1H-pyrazolo[4,3-b]pyridin-3-amine] | 680 nM

Now from value to molecule:

EC50 | Compound
> 10000 nM | CC(C)n1nc(Cl)c2cc(Nc3n[nH]c4cccnc34)ccc21 [Example 280, N-(3-chloro-1-isopropyl-1H-indazol-5-yl)-1H-pyrazolo[4,3-b]pyridin-3-amine]
2430 nM | CCCCn1nc(Cl)c2cc(Nc3n[nH]c4cccnc34)ccc21 [Example 281, N-(1-butyl-3-chloro-1H-indazol-5-yl)-1H-pyrazolo[4,3-b]pyridin-3-amine]
> 10000 nM | [2H]C([2H])([2H])n1nc(Cl)c2cc(Nc3n[nH]c4cccnc34)ccc21 [Example 282, N-(3-chloro-1-(methyl-d3)-1H-indazol-5-yl)-1H-pyrazolo[4,3-b]pyridin-3-amine]
> 10000 nM | Clc1nn(CC2CC2)c2ccc(Nc3n[nH]c4cccnc34)cc12 [Example 284, N-(3-chloro-1-(cyclopropylmethyl)-1H-indazol-5-yl)-1H-pyrazolo[4,3-b]pyridin-3-amine]
> 10000 nM | CCC(C)n1nc(Cl)c2cc(Nc3n[nH]c4cccnc34)ccc21 (stereo not drawn) [Example 286, N-(1-(sec-butyl)-3-chloro-1H-indazol-5-yl)-1H-pyrazolo[4,3-b]pyridin-3-amine]
